Data: patent US11414384B2, “P300/CBP hat inhibitors” (Constellation Pharmaceuticals, Inc., priority 2018, dated 2022)

These compounds were tested against p300 HAT domain (residues 1287-1666) (Homo sapiens (Human), UniProt Q09472) (assay: p300 HAT SPA assay (scintillation proximity assay, acetylation of biotinylated H3(1-21) peptide)). Settings: P300 HAT SPA IC50, p300 HAT domain; average of at least 2 replicate titrations.
Assay type: biochemical
Description: In a typical experiment the p300 HAT inhibitory activity of the compounds described herein was determined in accordance with the following experimental method.
The expressed protein was purified by Ni2+ affinity, followed by anion exchange chromatography. Appropriate fractions were pooled and buffer exchanged into 20 mM Hepes pH 7.5, 150 mM NaCl, and 1 mM TCEP.
35 μL of the reaction volume was transferred to a 384-well streptavidin FlashPlate (PerkinElmer) using a Bravo liquid handler (Velocity 11) and incubated for 1.5 hr at RT. […] Data were analyzed in Genedata to determine inhibitor IC50 values.

Sequence of p300 HAT domain (residues 1287-1666) (Q09472 1287-1666): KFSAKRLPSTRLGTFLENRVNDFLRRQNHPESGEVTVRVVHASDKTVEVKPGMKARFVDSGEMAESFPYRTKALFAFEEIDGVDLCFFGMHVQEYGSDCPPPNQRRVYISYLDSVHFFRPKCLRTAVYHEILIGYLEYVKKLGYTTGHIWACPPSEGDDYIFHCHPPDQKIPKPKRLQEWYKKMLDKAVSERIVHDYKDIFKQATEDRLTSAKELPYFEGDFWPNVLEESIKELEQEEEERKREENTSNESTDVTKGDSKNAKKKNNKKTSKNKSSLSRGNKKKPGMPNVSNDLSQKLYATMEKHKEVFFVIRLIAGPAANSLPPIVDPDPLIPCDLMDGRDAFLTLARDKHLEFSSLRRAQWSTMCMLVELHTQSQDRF

Going from `COCCn1cc(C(=O)C(NCCc2ccc(Cl)cc2)c2ccccc2)c2ccccc21` (single isomer, unassigned) [127 Isomer 1] to `O=C(c1cn(CCO)c2ccccc12)C(NCCc1ccc(Cl)cc1)c1ccccc1` (single isomer, unassigned) [128 Isomer 1], the IC50 falls from > 60 µM to 42.1 µM.

Same assay, conditions: p300 HAT domain; average of at least 2 replicate titrations; read-out: P300 HAT SPA IC50

Compared with `Cn1cc(-c2ccc3c(C(=O)C(NCCc4ccc(F)cc4F)c4ccccc4)c[nH]c3c2)cn1` (single isomer, unassigned) [85 Isomer 1], `CC(CNC(C(=O)c1c[nH]c2cc(-c3cnn(C)c3)ccc12)c1ccccc1)c1ccc(Cl)cc1` (single isomer, unassigned) [91 Isomer 1] is lower in IC50: > 30 µM for the first, 3.73 µM for the second. The second is the more potent here.

Going from `CCn1cc(-c2ccc3c(C(=O)C(NCCc4ccc(Cl)cc4)c4ccccc4)c[nH]c3c2)cn1` (single isomer, unassigned) [86 Isomer 1] to `CNC(=O)Cn1cc(-c2ccc3c(C(=O)C(NCCc4ccc(Cl)cc4)c4ccccc4)c[nH]c3c2)cn1` (single isomer, unassigned) [87 Isomer 1], the IC50 falls from 28.1 µM to 1.39 µM (20-fold).

Compared with `Cc1ccc(-c2ccc3c(C(=O)C(NCCc4ccc(Cl)cc4)c4ccccc4)c[nH]c3c2)cn1` (single isomer, unassigned) [88 Isomer 1], `O=C(c1c[nH]c2cc(-c3cccnc3)ccc12)C(NCCc1ccc(Cl)cc1)c1ccccc1` (single isomer, unassigned) [90 Isomer 1] is lower in IC50: > 30 µM for the first, 0.967 µM for the second. The second is the more potent here.

Compared with `O=C(c1c[nH]c2cc(-c3ccncc3)ccc12)C(NCCc1ccc(Cl)cc1)c1ccccc1` (single isomer, unassigned) [89 Isomer 1], `O=C(c1c[nH]c2cc(-c3ccncn3)ccc12)C(NCCc1ccc(Cl)cc1)c1ccccc1` (single isomer, unassigned) [111 Isomer 1] is 24-fold lower in IC50: 27.2 µM for the first, 1.15 µM for the second. The second is the more potent here.

Going from `O=C(c1c[nH]c2cc(-c3ccncc3)ccc12)C(NCCc1ccc(Cl)cc1)c1ccccc1` (single isomer, unassigned) [89 Isomer 2] to `O=C(c1c[nH]c2cc(-c3ccncn3)ccc12)C(NCCc1ccc(Cl)cc1)c1ccccc1` (single isomer, unassigned) [111 Isomer 2], the IC50 falls from 0.966 µM to 0.556 µM (1.7-fold).

Going from `CC(CNC(C(=O)c1c[nH]c2cc(-c3cnn(C)c3)ccc12)c1ccccc1)c1ccc(Cl)cc1` (single isomer, unassigned) [91 Isomer 2] to `CC(Cc1ccc(Cl)cc1)NC(C(=O)c1c[nH]c2cc(-c3cnn(C)c3)ccc12)c1ccccc1` (single isomer, unassigned) [92 Isomer 1], the IC50 falls from > 30 µM to 2.1 µM.

Going from `CC(CNC(C(=O)c1c[nH]c2cc(-c3cnn(C)c3)ccc12)c1ccccc1)c1ccc(Cl)cc1` (single isomer, unassigned) [91 Isomer 3] to `CC(Cc1ccc(Cl)cc1)NC(C(=O)c1c[nH]c2cc(-c3cnn(C)c3)ccc12)c1ccccc1` (single isomer, unassigned) [92 Isomer 2], the IC50 rises from 6.44 µM to > 30 µM. The first is the more potent here.

First: CC(CNC(C(=O)c1c[nH]c2cc(-c3cnn(C)c3)ccc12)c1ccccc1)c1ccc(Cl)cc1 (single isomer, unassigned) [91 Isomer 4]
Second: CC(Cc1ccc(Cl)cc1)NC(C(=O)c1c[nH]c2cc(-c3cnn(C)c3)ccc12)c1ccccc1 (single isomer, unassigned) [92 Isomer 4]
The IC50 of the first is 17-fold lower: 0.134 µM for the first, 2.22 µM for the second.

Compared with `N#Cc1ccc(CCNC(C(=O)c2c[nH]c3cc(-c4cnn(CCO)c4)ccc23)c2ccccc2)cc1` (single isomer, unassigned) [95 Isomer 1], `COCCn1cc(-c2ccc3c(C(=O)C(NCCc4ccc(C#N)cc4)c4ccccc4)c[nH]c3c2)cn1` (single isomer, unassigned) [96 Isomer 1] is 4.5-fold lower in IC50: 0.816 µM for the first, 0.182 µM for the second.

Compared with `N#Cc1ccc(CCNC(C(=O)c2c[nH]c3cc(-c4cn[nH]c4)ccc23)c2ccccc2)cc1` (single isomer, unassigned) [98 Isomer 1], `Cn1cnc(-c2ccc3c(C(=O)C(NCCc4ccc(C#N)cc4)c4ccccc4)c[nH]c3c2)c1` (single isomer, unassigned) [113 Isomer 1] is 2.3-fold higher in IC50: 0.493 µM for the first, 1.11 µM for the second. The first is the more potent here.

`N#Cc1ccc(CCNC(C(=O)c2cnn3cc(-c4cn[nH]c4)ccc23)c2ccccc2)cc1` (single isomer, unassigned) [99 Isomer 1] and `Cn1cc(-c2ccc3c(C(=O)C(NCCc4ccc(S(N)(=O)=O)cc4)c4ccccc4)cnn3c2)cn1` (single isomer, unassigned) [101 Isomer 1] are within 1.5-fold of each other in IC50: 0.212 µM for the first, 0.166 µM for the second.

Compared with `CC(CNC(C(=O)c1cnn2cc(-c3cnn(C)c3)ccc12)c1ccccc1)c1ccc(C#N)cc1` (single isomer, unassigned) [102 Isomer 1], `Cn1cc(-c2ccc3c(C(=O)C(NCCc4ccc(C#N)cc4)c4ccccc4)c[nH]c3c2F)cn1` (single isomer, unassigned) [103 Isomer 1] is 1.8-fold higher in IC50: 1.88 µM for the first, 3.41 µM for the second. The first is the more potent here.

Compared with `CC(CNC(C(=O)c1cnn2cc(-c3cnn(C)c3)ccc12)c1ccccc1)c1ccc(C#N)cc1` (single isomer, unassigned) [102 Isomer 2], `Cn1cc(-c2ccc3c(C(=O)C(NCCc4ccc(C#N)cc4)c4ccccc4)c[nH]c3c2)nn1` (single isomer, unassigned) [114 Isomer 1] is 2.3-fold higher in IC50: 0.239 µM for the first, 0.558 µM for the second.

First: CC(CNC(C(=O)c1cnn2cc(-c3cnn(C)c3)ccc12)c1ccccc1)c1ccc(C#N)cc1 (single isomer, unassigned) [102 Isomer 3]
Second: CN1CCN(c2ccc3c(C(=O)C(NCCc4ccc(C#N)cc4)c4ccccc4)c[nH]c3n2)CC1 (single isomer, unassigned) [121 Isomer 1]
The IC50 of the first is 10-fold lower: 0.212 µM for the first, 2.2 µM for the second.

Going from `Cn1cc(-c2ccc3c(C(=O)C(NCCc4ccc(Cl)cc4)c4ccccc4)c[nH]c3c2)nn1` (single isomer, unassigned) [104 Isomer 1] to `Cn1cnc(-c2ccc3c(C(=O)C(NCCc4ccc(Cl)cc4)c4ccccc4)c[nH]c3c2)c1` (single isomer, unassigned) [106 Isomer 1], the IC50 falls from > 5 µM to 0.755 µM.

`Cn1cc(-c2ccc3c(C(=O)C(NCCc4ccc(Cl)cc4)c4ccccc4)c[nH]c3c2)nn1` (single isomer, unassigned) [104 Isomer 2] and `Cn1cnc(-c2ccc3c(C(=O)C(NCCc4ccc(Cl)cc4)c4ccccc4)c[nH]c3c2)c1` (single isomer, unassigned) [106 Isomer 2] are within 1.5-fold of each other in IC50: 0.388 µM for the first, 0.283 µM for the second.

Compared with `O=C(c1c[nH]c2cc(-c3ccccn3)ccc12)C(NCCc1ccc(F)cc1)c1ccccc1` (single isomer, unassigned) [105 Isomer 1], `O=C(c1c[nH]c2cc(-c3ccccn3)ccc12)C(NCCc1ccc(Cl)cc1)c1ccccc1` (single isomer, unassigned) [108 Isomer 2] is lower in IC50: > 30 µM for the first, 2.64 µM for the second.

`Cc1nnc(-c2ccc3c(C(=O)C(NCCc4ccc(Cl)cc4)c4ccccc4)c[nH]c3c2)o1` (single isomer, unassigned) [107 Isomer 1] and `Cc1cnc(-c2ccc3c(C(=O)C(NCCc4ccc(Cl)cc4)c4ccccc4)c[nH]c3c2)[nH]1` (single isomer, unassigned) [109 Isomer 1] are within 1.5-fold of each other in IC50: 1.9 µM for the first, 2.66 µM for the second.

First: Cc1nnc(-c2ccc3c(C(=O)C(NCCc4ccc(Cl)cc4)c4ccccc4)c[nH]c3c2)o1 (single isomer, unassigned) [107 Isomer 2]
Second: Cc1ncc(-c2ccc3c(C(=O)C(NCCc4ccc(Cl)cc4)c4ccccc4)c[nH]c3c2)[nH]1 (single isomer, unassigned) [110 Isomer 1]
The IC50 of the first is 1.6-fold higher: 3.28 µM for the first, 2.01 µM for the second.

`O=C(c1c[nH]c2cc(-c3cccnn3)ccc12)C(NCCc1ccc(Cl)cc1)c1ccccc1` (single isomer, unassigned) [112 Isomer 1] and `Cn1cnc(-c2ccc3c(C(=O)C(NCCc4ccc(S(N)(=O)=O)cc4)c4ccccc4)c[nH]c3c2)c1` (single isomer, unassigned) [115 Isomer 1] are within 1.5-fold of each other in IC50: 2.03 µM for the first, 1.49 µM for the second.

`Cn1cc(-c2ccc3c(C(=O)C(NCCc4ccc(S(N)(=O)=O)cc4)c4ccccc4)c[nH]c3c2)nn1` (single isomer, unassigned) [116 Isomer 1] and `NS(=O)(=O)c1ccc(CCNC(C(=O)c2c[nH]c3cc(-n4ccnc4)ccc23)c2ccccc2)cc1` (single isomer, unassigned) [119 Isomer 1] cannot be ordered by IC50: > 5 µM for the first, > 5 µM for the second.

`O=C(c1c[nH]c2cc(-n3ccnc3)ccc12)C(NCCc1ccc(F)cc1)c1ccccc1` (single isomer, unassigned) [117 Isomer 2] and `O=C(c1c[nH]c2cc(-n3cccn3)ccc12)C(NCCc1ccc(F)cc1)c1ccccc1` (single isomer, unassigned) [118 Isomer 1] cannot be ordered by IC50: > 30 µM for the first, > 30 µM for the second.

First: CN1CCN(c2ccc3c(C(=O)C(NCCc4ccc(C#N)cc4)c4ccccc4)c[nH]c3c2)CC1 (single isomer, unassigned) [122 Isomer 1]
Second: CN1CCN(c2ccc3c(C(=O)C(NCCc4ccc(F)cc4)c4ccccc4)c[nH]c3c2)CC1 (single isomer, unassigned) [123 Isomer 1]
The IC50 of the first is 23-fold lower: 0.325 µM for the first, 7.61 µM for the second. The first is the more potent here.

`CN1CCN(c2ccc3c(C(=O)C(NCCc4ccc(S(N)(=O)=O)cc4)c4ccccc4)c[nH]c3c2)CC1` (single isomer, unassigned) [124 Isomer 1] and `N#Cc1ccc(CCNC(C(=O)c2c[nH]c3cc(N4CCCC4)ccc23)c2ccccc2)cc1` (single isomer, unassigned) [125 Isomer 1] cannot be ordered by IC50: > 5 µM for the first, > 2 µM for the second.

Going from `N#Cc1ccc(CCNC(C(=O)c2c[nH]c3cc(N4CCCC4)ccc23)c2ccccc2)cc1` (single isomer, unassigned) [125 Isomer 2] to `CN1CCC(Oc2ccc3c(C(=O)C(NCCc4ccc(C#N)cc4)c4ccccc4)c[nH]c3c2)CC1` (single isomer, unassigned) [126 Isomer 1], the IC50 rises from 0.224 µM to 2.84 µM (13-fold). The first is the more potent here.

Same assay, conditions: read-out: P300 HAT SPA IC50; p300 HAT domain; average of at least 2 replicate titrations

In the case of `COCCn1cc(C(=O)C(NCCc2ccc(Cl)cc2)c2ccccc2)c2ccccc21` (single isomer, unassigned) [127 Isomer 2], the IC50 is reported as > 60 µM.
